According to article PMC11983176 (ACS Omega, 2025):
Like-named read-outs stand apart in the source and are kept apart here.

Experiments:
MCF-7 [1] = assay: MTT cytotoxicity assay, MCF-7; format: cell-based, human; conditions: read-out: Cytotoxicity (IC50) MCF-7, 48 h of treatment
T47D = assay: MTT cytotoxicity assay, T47D; format: cell-based, human
MCF-7 [2] = assay: Cell viability by cell adhesion assay; format: cell-based, human; conditions: MCF-7, 500 to 1.95 μM, 45 min
[3] = Stability in PBS and Tris-HCl buffer by UV-vis spectroscopy; format: physicochemical; conditions: PBS (0.1 M, pH 7.4) and Tris-HCl, 10% DMSO, room temperature, 5 min to 72 h

With “1-Cyclopentyl-2,3-dihydro-1H-benzimidazole [compound 1]” the IC50 (MCF-7 [1]) was 37 ± 1.93 µM and the IC50 (T47D; read-out: Cytotoxicity (IC50) T47D, MTT assay, 48 h of treatment) was 41 ± 2.12 µM.

For `CC/C(=C(\c1ccccc1)c1ccc(OCCN(C)C)cc1)c1ccccc1` [Tamoxifen], the IC50 (T47D; Homo sapiens, T47D, 48 h, read-out: Cytotoxicity (IC50) T47D, MTT assay, 48 h of treatment) was 13 ± 0.71 µM and the “cell killing in adhesion assay” value (MCF-7 [2]) was “slightly less initial effects on MCF-7 cells”.

For `[Cl][Ag]` [silver chloride], the “stability in buffer solution” value [3] was “precipitates appeared immediately”.

For `O=[N+]([O-])[O-].[Ag+]` [silver nitrate], the “stability in buffer solution” value [3] was “precipitates appeared immediately”.
